ChEMBL document CHEMBL2028040, “Malaria Box”

How the values were obtained:
Plasmodium falciparum [1] = experiment: MMV: Inhibition of Plasmodium falciparum 3D7 at 2uM compound concentration.; format: functional
Plasmodium falciparum [2] = experiment: MMV: Inhibition of Plasmodium falciparum 3D7 (EC50).; format: functional, organism-based
Trypanosoma cruzi = experiment: MMV: Inhibition of Trypanosoma cruzi (Tulahuen C4 LacZ) (Chagas in vitro).; format: functional, organism-based
[3] = tested on: Trypanosoma brucei brucei; experiment: MMV: Inhibition of Trypanosoma brucei brucei (Squib 427) (HAT in vitro).; format: functional, organism-based
[4] = tested on: Trypanosoma brucei rhodesiense; experiment: MMV: Inhibition of Trypanosoma brucei rhodesiense (STIB 900) (HAT in vitro).; format: functional, organism-based
Leishmania infantum = experiment: MMV: Inhibition of Leishmania infantum (MHOM/MA/BE/67) in vitro.; format: functional, organism-based
[5] = MMV: Cytotoxicity against human fibroblasts (MRC-5) cells.; conditions: MRC-5 cells (human fibroblasts)
Plasmodium falciparum [6] = experiment: MMV: Inhibition of Plasmodium falciparum 3D7 at 5uM compound concentration.; format: functional
Plasmodium falciparum [7] = experiment: MMV: Inhibition of Plasmodium falciparum K1 (EC50).; format: functional, organism-based

For `CN(C)CCNc1cc(-c2ccccc2)nc2ccccc12`, which inhibition at 2 µM (Plasmodium falciparum [1]) is on record?
Its inhibition at 2 µM is 92%.

What about the EC50 (Plasmodium falciparum [2]) of the same compound?
The EC50 was 4 µM.

And the IC50 (Trypanosoma cruzi)?
Its IC50 is 7.26 µM.

What about the IC50 [3] of the same compound?
Its IC50 is 3.91 µM.

What about the IC50 [4] of the same compound?
Its IC50 is 4.03 µM.

What about the IC50 (Leishmania infantum) of the same compound?
The IC50 was 6.35 µM.

And the IC50 [5]?
The IC50 was 25.4 µM.

Which inhibition at 2 µM (Plasmodium falciparum [1]) does the source give for `CCOc1ccc(N2C(N)=NC(N)=NC2(C)C)cc1` here?
The inhibition at 2 µM was 92%.

And the IC50 (Trypanosoma cruzi)?
The IC50 was > 32 µM.

What about the IC50 [3] of the same compound?
Its IC50 is > 32 µM.

What about the IC50 [4] of the same compound?
The IC50 was > 32 µM.

And the IC50 (Leishmania infantum)?
Its IC50 is > 32 µM.

And the IC50 [5]?
The IC50 was 21.1 µM.

What does the source list for `COc1ccc2nc(C)cc(Nc3ccc(Cl)cc3)c2c1`?
inhibition at 2 µM (Plasmodium falciparum [1]): 95%; EC50 (Plasmodium falciparum [2]): 2 µM; IC50 (Trypanosoma cruzi): 3.66 µM; IC50 [3]: 3.57 µM; IC50 [4]: 3.51 µM; IC50 (Leishmania infantum): 4.06 µM; IC50 [5]: > 32 µM

Which inhibition at 2 µM (Plasmodium falciparum [1]) does the source give for `COc1cccc(Nc2nc(N)c3ccccc3n2)c1` here?
Its inhibition at 2 µM is 94%.

And the EC50 (Plasmodium falciparum [2])?
Its EC50 is 4 µM.

What about the IC50 (Trypanosoma cruzi) of the same compound?
Its IC50 is 15.8 µM.

What about the IC50 [3] of the same compound?
The IC50 was 9.07 µM.

And the IC50 [4]?
Its IC50 is 12.1 µM.

And the IC50 (Leishmania infantum)?
The IC50 was 12 µM.

What about the IC50 [5] of the same compound?
The IC50 was > 32 µM.

Which results are given for `CN1CCN(c2c3c(c(C#N)c4nc5ccccc5n24)CCC3)CC1`?
inhibition at 2 µM (Plasmodium falciparum [1]): 42%; EC50 (Plasmodium falciparum [2]): 4 µM; IC50 (Trypanosoma cruzi): > 32 µM; IC50 [3]: > 32 µM; IC50 [4]: > 32 µM; IC50 (Leishmania infantum): > 32 µM; IC50 [5]: > 32 µM

With `CCOc1ccc2nc(C)cc(Nc3ccc(N(C)C)cc3)c2c1` as the compound, how does the inhibition at 2 µM (Plasmodium falciparum [1]) read?
The inhibition at 2 µM was 94%.

And the EC50 (Plasmodium falciparum [2])?
Its EC50 is 4 µM.

And the IC50 (Trypanosoma cruzi)?
The IC50 was 13.7 µM.

What about the IC50 [3] of the same compound?
Its IC50 is 3.73 µM.

What about the IC50 [4] of the same compound?
The IC50 was 3.49 µM.

And the IC50 (Leishmania infantum)?
The IC50 was 4 µM.

What about the IC50 [5] of the same compound?
The IC50 was 18.6 µM.

With `Cc1cc(Nc2cccc(F)c2)nc(NCc2ccccc2)n1` as the compound, how does the inhibition at 2 µM (Plasmodium falciparum [1]) read?
Its inhibition at 2 µM is 97%.

And the IC50 (Trypanosoma cruzi)?
Its IC50 is 0.919 µM.

And the IC50 [3]?
The IC50 was 7.58 µM.

And the IC50 [4]?
Its IC50 is 4.03 µM.

What about the IC50 (Leishmania infantum) of the same compound?
Its IC50 is 2.57 µM.

And the IC50 [5]?
Its IC50 is > 32 µM.

Which inhibition at 2 µM (Plasmodium falciparum [1]) does the source give for `Cc1cccc(Nc2nc(N)c3ccccc3n2)c1` here?
The inhibition at 2 µM was 97%.

And the EC50 (Plasmodium falciparum [2])?
The EC50 was 0.4 µM.

What about the IC50 (Trypanosoma cruzi) of the same compound?
The IC50 was 11.4 µM.

What about the IC50 [3] of the same compound?
Its IC50 is 17.6 µM.

What about the IC50 [4] of the same compound?
Its IC50 is 11.4 µM.

And the IC50 (Leishmania infantum)?
The IC50 was 4.32 µM.

And the IC50 [5]?
The IC50 was > 32 µM.

Which results are given for `OCCNc1nc(Nc2ccc(Cl)c(Cl)c2)nc2ccccc12`?
inhibition at 2 µM (Plasmodium falciparum [1]): 94%; EC50 (Plasmodium falciparum [2]): 0.59 µM; IC50 (Trypanosoma cruzi): 2.58 µM; IC50 [3]: 3.33 µM; IC50 [4]: 2.06 µM; IC50 (Leishmania infantum): 3.01 µM; IC50 [5]: 4.96 µM

What does the source list for `Cc1ccc(Nc2nc(N)c3ccccc3n2)cc1Cl`?
inhibition at 2 µM (Plasmodium falciparum [1]): 96%; EC50 (Plasmodium falciparum [2]): 4 µM; IC50 (Trypanosoma cruzi): 3.81 µM; IC50 [3]: 3.35 µM; IC50 [4]: 6.53 µM; IC50 (Leishmania infantum): 4 µM; IC50 [5]: 15.4 µM

With `COc1cc(SC)ccc1C(=O)N1CCCC(C)C1` (configuration not stated) as the compound, how does the inhibition at 2 µM (Plasmodium falciparum [1]) read?
Its inhibition at 2 µM is 45%.

And the EC50 (Plasmodium falciparum [2])?
The EC50 was 4 µM.

And the IC50 (Trypanosoma cruzi)?
Its IC50 is > 32 µM.

And the IC50 [3]?
The IC50 was > 32 µM.

And the IC50 [4]?
Its IC50 is > 32 µM.

What about the IC50 (Leishmania infantum) of the same compound?
The IC50 was > 32 µM.

And the IC50 [5]?
Its IC50 is > 32 µM.

For `Cc1ccc2c(C)nc(Nc3nc(C)cc(-c4ccccc4)n3)nc2c1`, which inhibition at 2 µM (Plasmodium falciparum [1]) is on record?
Its inhibition at 2 µM is 73%.

What about the EC50 (Plasmodium falciparum [2]) of the same compound?
Its EC50 is 4 µM.

And the IC50 (Trypanosoma cruzi)?
The IC50 was 21.1 µM.

And the IC50 [3]?
The IC50 was > 32 µM.

What about the IC50 [4] of the same compound?
The IC50 was 27.7 µM.

And the IC50 (Leishmania infantum)?
The IC50 was > 32 µM.

What about the IC50 [5] of the same compound?
Its IC50 is > 32 µM.

For `c1ccc(CNc2nc(Nc3ccccc3)nc3ccccc23)cc1`, which inhibition at 2 µM (Plasmodium falciparum [1]) is on record?
The inhibition at 2 µM was 95%.

What about the EC50 (Plasmodium falciparum [2]) of the same compound?
Its EC50 is 0.776 µM.

What about the IC50 (Trypanosoma cruzi) of the same compound?
Its IC50 is 1.46 µM.

And the IC50 [3]?
Its IC50 is 3.36 µM.

And the IC50 [4]?
The IC50 was 3.05 µM.

And the IC50 (Leishmania infantum)?
The IC50 was 0.707 µM.

What about the IC50 [5] of the same compound?
Its IC50 is 3.36 µM.

With `CN(C)c1ccc(N2C(N)=NC(N)=NC2(C)C)cc1` as the compound, how does the inhibition at 2 µM (Plasmodium falciparum [1]) read?
The inhibition at 2 µM was 95%.

And the IC50 (Trypanosoma cruzi)?
The IC50 was > 32 µM.

And the IC50 [3]?
The IC50 was > 32 µM.

What about the IC50 [4] of the same compound?
The IC50 was > 32 µM.

And the IC50 (Leishmania infantum)?
The IC50 was > 32 µM.

What about the IC50 [5] of the same compound?
The IC50 was > 32 µM.

For `CCOc1ccc(Nc2ccnc3cc(Cl)ccc23)cc1`, which inhibition at 2 µM (Plasmodium falciparum [1]) is on record?
The inhibition at 2 µM was 94%.

And the EC50 (Plasmodium falciparum [2])?
The EC50 was 4 µM.

What about the IC50 (Trypanosoma cruzi) of the same compound?
The IC50 was > 32 µM.

And the IC50 [3]?
The IC50 was > 32 µM.

What about the IC50 [4] of the same compound?
The IC50 was > 32 µM.

And the IC50 (Leishmania infantum)?
Its IC50 is > 32 µM.

What about the IC50 [5] of the same compound?
The IC50 was > 32 µM.

For `CCOc1ccc2nc(C)cc(Nc3ccc(Br)cc3)c2c1`, which inhibition at 2 µM (Plasmodium falciparum [1]) is on record?
Its inhibition at 2 µM is 96%.

What about the EC50 (Plasmodium falciparum [2]) of the same compound?
Its EC50 is 0.48 µM.

And the IC50 (Trypanosoma cruzi)?
Its IC50 is 4.22 µM.

And the IC50 [3]?
The IC50 was 3.6 µM.

And the IC50 [4]?
The IC50 was 3.35 µM.

What about the IC50 (Leishmania infantum) of the same compound?
Its IC50 is 4.06 µM.

What about the IC50 [5] of the same compound?
The IC50 was 3.17 µM.

For `CCCCc1c(C)nc2c(OC)cccc2c1O`, which inhibition at 2 µM (Plasmodium falciparum [1]) is on record?
The inhibition at 2 µM was 92%.

And the EC50 (Plasmodium falciparum [2])?
Its EC50 is 4 µM.

What about the IC50 (Trypanosoma cruzi) of the same compound?
Its IC50 is > 32 µM.

And the IC50 [3]?
Its IC50 is > 32 µM.

And the IC50 [4]?
The IC50 was > 32 µM.

What about the IC50 (Leishmania infantum) of the same compound?
Its IC50 is > 32 µM.

And the IC50 [5]?
The IC50 was > 32 µM.

Which inhibition at 2 µM (Plasmodium falciparum [1]) does the source give for `COc1ccc2sc(N(Cc3cccnc3)C(=O)c3ccc(C#N)cc3)nc2c1` here?
The inhibition at 2 µM was 89%.

And the IC50 (Trypanosoma cruzi)?
The IC50 was 5.5 µM.

And the IC50 [3]?
Its IC50 is > 32 µM.

What about the IC50 [4] of the same compound?
The IC50 was 16.1 µM.

What about the IC50 (Leishmania infantum) of the same compound?
The IC50 was > 32 µM.

What about the IC50 [5] of the same compound?
Its IC50 is > 32 µM.

With `CCc1ccc(Nc2cc(C)nc3nc(C)nn23)cc1` as the compound, how does the inhibition at 2 µM (Plasmodium falciparum [1]) read?
The inhibition at 2 µM was 81%.

What about the EC50 (Plasmodium falciparum [2]) of the same compound?
The EC50 was 4 µM.

What about the IC50 (Trypanosoma cruzi) of the same compound?
Its IC50 is > 32 µM.

And the IC50 [3]?
Its IC50 is > 32 µM.

What about the IC50 [4] of the same compound?
The IC50 was > 32 µM.

What about the IC50 (Leishmania infantum) of the same compound?
Its IC50 is > 32 µM.

What about the IC50 [5] of the same compound?
The IC50 was > 32 µM.

For `CN(C)c1ccc(C(O)(c2ccc(N(C)C)cc2)c2ccc(N(C)C)cc2)cc1` [METHYLROSANILINE], which inhibition at 5 µM (Plasmodium falciparum [6]) is on record?
The inhibition at 5 µM was 96%.

What about the EC50 (Plasmodium falciparum [2]) of the same compound?
Its EC50 is 0.255 µM.

What about the EC50 (Plasmodium falciparum [7]) of the same compound?
The EC50 was 0.5 µM.

What about the IC50 (Trypanosoma cruzi) of the same compound?
Its IC50 is < 0.125 µM.

What about the IC50 [3] of the same compound?
The IC50 was < 0.125 µM.

And the IC50 [4]?
Its IC50 is < 0.125 µM.

And the IC50 (Leishmania infantum)?
The IC50 was < 0.125 µM.

What about the IC50 [5] of the same compound?
The IC50 was 0.354 µM.
